# Measured values published in article PMC7451048 (Drug metabolism letters, 2019).
# Tests used:
# OATP1B3 [1] = molecular target: T1, OATP1B3 (Homo sapiens, UniProt Q9NPD5); details: 3 min; for Inhibition of cellular uptake by RIF, OATP1B3-overexpressing cells: 20 μM RIF, BUP 5 μM, OHB 30 μM, TB 10 μM, EB 5 μM; for Apparent Vmax / Km: net cellular uptake, CHO/OATP1B3-overexpressing cells, mean ± SD; for Km: read-out: Apparent Km
# T1 sequence (Q9NPD5 1-702): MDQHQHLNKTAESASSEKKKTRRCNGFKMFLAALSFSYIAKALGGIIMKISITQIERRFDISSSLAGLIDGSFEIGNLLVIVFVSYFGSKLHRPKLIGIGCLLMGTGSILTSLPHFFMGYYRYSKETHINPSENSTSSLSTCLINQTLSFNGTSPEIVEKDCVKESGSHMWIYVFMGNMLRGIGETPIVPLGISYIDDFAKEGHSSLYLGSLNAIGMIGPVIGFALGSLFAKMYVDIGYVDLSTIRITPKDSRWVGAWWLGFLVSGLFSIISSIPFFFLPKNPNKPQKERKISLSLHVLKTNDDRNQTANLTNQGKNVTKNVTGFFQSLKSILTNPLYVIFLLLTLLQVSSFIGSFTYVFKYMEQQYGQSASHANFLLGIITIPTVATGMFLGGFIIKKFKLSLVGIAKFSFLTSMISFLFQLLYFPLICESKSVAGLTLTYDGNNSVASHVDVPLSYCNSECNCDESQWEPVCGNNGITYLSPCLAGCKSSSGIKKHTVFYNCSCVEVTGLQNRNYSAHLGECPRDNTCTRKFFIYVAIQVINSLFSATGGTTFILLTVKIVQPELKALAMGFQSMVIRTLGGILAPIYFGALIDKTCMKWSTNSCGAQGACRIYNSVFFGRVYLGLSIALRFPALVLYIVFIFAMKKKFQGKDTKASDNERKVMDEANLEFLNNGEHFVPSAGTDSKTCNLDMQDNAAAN
# OATP1B3 [2] = molecular target: T1, OATP1B3
# OCT1 = molecular target: T2, OCT1 (Homo sapiens, UniProt O15245); assay: Cellular uptake assay, HEK/OCT1 vs HEK empty vector cells
# T2 sequence (O15245 1-554): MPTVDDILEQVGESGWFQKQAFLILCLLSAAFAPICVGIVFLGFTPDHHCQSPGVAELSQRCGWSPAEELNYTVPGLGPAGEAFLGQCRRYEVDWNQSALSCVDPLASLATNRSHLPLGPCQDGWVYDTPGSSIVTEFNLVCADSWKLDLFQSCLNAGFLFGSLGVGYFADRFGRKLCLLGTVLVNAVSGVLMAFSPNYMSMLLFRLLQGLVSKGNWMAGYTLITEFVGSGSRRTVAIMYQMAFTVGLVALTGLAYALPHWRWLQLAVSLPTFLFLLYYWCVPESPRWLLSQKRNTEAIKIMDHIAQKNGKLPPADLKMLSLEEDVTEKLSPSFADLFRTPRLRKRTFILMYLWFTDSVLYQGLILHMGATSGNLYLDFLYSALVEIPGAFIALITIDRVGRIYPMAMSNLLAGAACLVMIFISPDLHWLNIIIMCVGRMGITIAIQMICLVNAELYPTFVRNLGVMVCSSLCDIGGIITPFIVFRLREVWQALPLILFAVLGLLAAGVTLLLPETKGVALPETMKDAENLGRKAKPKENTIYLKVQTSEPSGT
# P-gp = P-gp (Homo sapiens, UniProt P08183); assay: Plasma membrane vesicle transport assay, P-gp vesicles; assay type: in vitro ADME; details: for Difference in P-gp vesicle uptake between ATP and AMP: 10 μM, 1 min (Fig. 9)
# [3] = ref [14], [15]; cited from earlier work
# OATP1B1 = molecular target: T3, OATP1B1 (Homo sapiens, UniProt Q9Y6L6); details: 3 min; for Inhibition of cellular uptake by RIF, OATP1B1-overexpressing cells: 20 μM RIF, BUP 5 μM, OHB 10 μM, TB 20 μM, EB 30 μM; for Apparent Vmax: net cellular uptake, CHO/OATP1B1-overexpressing cells, mean ± SD
# T3 sequence (Q9Y6L6 1-691): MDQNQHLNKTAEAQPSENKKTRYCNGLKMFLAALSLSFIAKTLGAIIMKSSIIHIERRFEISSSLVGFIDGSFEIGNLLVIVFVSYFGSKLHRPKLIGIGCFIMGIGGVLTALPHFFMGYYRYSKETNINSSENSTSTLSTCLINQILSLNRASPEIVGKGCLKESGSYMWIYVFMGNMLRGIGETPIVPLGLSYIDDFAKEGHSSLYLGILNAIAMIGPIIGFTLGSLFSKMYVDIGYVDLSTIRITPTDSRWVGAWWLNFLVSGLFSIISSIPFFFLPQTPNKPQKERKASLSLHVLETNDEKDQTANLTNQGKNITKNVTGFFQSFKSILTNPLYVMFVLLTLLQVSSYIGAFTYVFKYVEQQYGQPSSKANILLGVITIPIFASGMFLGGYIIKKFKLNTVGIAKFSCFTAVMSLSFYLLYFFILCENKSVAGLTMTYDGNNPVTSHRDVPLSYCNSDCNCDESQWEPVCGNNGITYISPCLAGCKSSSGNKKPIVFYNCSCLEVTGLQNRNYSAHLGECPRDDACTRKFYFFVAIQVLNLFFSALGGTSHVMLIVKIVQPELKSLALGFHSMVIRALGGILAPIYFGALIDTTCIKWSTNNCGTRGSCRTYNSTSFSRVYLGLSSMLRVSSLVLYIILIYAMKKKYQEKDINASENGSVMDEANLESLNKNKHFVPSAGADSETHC
# Chain of P-gp (P08183 whole entry): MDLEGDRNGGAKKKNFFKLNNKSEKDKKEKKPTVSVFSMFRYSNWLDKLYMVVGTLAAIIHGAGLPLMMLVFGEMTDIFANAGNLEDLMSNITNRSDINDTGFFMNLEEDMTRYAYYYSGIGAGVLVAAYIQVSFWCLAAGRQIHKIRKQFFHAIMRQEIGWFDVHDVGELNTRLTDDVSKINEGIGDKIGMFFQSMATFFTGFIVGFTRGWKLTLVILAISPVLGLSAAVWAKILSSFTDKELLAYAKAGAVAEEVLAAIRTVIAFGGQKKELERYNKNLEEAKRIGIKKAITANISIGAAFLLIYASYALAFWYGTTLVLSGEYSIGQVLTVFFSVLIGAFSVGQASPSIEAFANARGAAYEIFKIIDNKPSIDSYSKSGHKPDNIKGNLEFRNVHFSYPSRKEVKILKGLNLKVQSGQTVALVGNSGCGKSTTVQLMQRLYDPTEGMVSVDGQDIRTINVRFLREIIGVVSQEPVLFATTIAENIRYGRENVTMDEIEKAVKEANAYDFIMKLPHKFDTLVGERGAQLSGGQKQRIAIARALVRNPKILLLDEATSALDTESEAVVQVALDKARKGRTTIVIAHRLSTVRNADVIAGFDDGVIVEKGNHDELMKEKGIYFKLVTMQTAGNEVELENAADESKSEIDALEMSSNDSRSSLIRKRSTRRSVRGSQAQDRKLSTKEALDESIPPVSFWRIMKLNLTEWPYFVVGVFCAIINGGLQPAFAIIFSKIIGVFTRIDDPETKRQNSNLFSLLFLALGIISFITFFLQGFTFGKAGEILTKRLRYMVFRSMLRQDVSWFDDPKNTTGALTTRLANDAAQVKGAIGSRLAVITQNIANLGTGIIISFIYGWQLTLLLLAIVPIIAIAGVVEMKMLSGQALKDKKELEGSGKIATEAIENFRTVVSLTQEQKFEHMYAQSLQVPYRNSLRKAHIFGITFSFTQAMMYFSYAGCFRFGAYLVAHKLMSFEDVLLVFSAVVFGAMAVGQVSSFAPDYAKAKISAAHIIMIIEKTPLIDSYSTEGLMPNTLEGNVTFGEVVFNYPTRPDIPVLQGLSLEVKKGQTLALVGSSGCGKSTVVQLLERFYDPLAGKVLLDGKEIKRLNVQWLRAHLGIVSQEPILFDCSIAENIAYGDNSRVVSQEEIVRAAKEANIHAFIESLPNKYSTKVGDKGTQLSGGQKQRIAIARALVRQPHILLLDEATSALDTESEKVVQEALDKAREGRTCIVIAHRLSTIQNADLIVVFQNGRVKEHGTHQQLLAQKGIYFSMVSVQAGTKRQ
SMILES,"Inhibition of cellular uptake by RIF, OATP1B3-overexpressing cells (OATP1B3 [1])",Apparent Vmax (OATP1B3 [1]),Km (OATP1B3 [1]),Substrate of OATP1B3 (conclusion) (OATP1B3 [2]),Substrate of OCT1 (conclusion) (OCT1),Substrate of P-gp (conclusion) (P-gp),Difference in P-gp vesicle uptake between ATP and AMP (P-gp),Pharmacological activity relative to BUP [3],"Inhibition of cellular uptake by RIF, OATP1B1-overexpressing cells (OATP1B1)",Apparent Vmax (OATP1B1)
"CC(NC(C)(C)C)C(O)c1cccc(Cl)c1 (stereo not drawn) [EB, Erythrohydrobupropion]",no statistically significant differences,1026±37 pmol/mg protein/min,14 ± 2 µM,not substrates,not substrates,not substrates,No significant differences,20%,no statistically significant differences,1806±133 pmol/mg protein/min
"C[C@H]1NC(C)(C)CO[C@]1(O)c1cccc(Cl)c1 [OHB, Hydroxybupropion]",no statistically significant differences,1258±86 pmol/mg protein/min,76 ± 14 µM,not substrates,not substrates,not substrates,No significant differences,50–100%,no statistically significant differences,1423 ± 49 pmol/mg protein/min
"C[C@H](NC(C)(C)C)[C@@H](O)c1cccc(Cl)c1 [TB, Threohydrobupropion]",no statistically significant differences,2536±97 pmol/mg protein/min,21 ± 3 µM,not substrates,not substrates,not substrates,No significant differences,20%,no statistically significant differences,1351±55 pmol/mg protein/min
